Data published in ChEMBL document CHEMBL1134285, “Novel agouti-related-protein-based melanocortin-1 receptor antagonist” (J Med Chem, 2001).
Positions of bridges follow the written chain, without caps; N, C: chain ends. Residues, ends and D or L forms follow the SMILES beside them.

Molecular target: Melanocortin receptor 4 (Mus musculus, UniProt P56450)
Experiment: Antagonist activity against mouse melanocortin-4 receptor (MC4R) using Schild analysis
Assay type: functional
Conditions: for Kb: read-out: pA2 (converted)

Chain of Melanocortin receptor 4 (P56450 whole entry): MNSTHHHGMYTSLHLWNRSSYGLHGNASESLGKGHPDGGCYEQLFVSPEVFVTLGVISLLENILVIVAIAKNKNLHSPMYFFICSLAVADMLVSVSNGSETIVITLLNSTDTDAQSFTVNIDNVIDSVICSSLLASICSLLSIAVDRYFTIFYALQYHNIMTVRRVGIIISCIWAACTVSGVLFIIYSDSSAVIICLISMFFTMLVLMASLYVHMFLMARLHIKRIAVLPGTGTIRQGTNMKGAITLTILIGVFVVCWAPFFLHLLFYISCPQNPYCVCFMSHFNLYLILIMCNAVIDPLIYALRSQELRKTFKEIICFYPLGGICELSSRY

| pA2 | Structure (SMILES) | Kb [nM] |
| --- | --- | --- |
| 6.98 | C[C@@H]1NC(=O)[C@H](CC(N)=O)NC(=O)[C@H](Cc2ccccc2)NC(=O)[C@H](Cc2ccccc2)NC(=O)[C@H](CCCN=C(N)N)NC(=O)CC[C@H](NC(=O)[C@@H](N)Cc2ccc(O)cc2)C(=O)NC[C@@H](C(=O)N[C@@H](Cc2ccc(O)cc2)C(N)=O)NC(=O)[C@H](Cc2ccccc2)NC1=O | – |
| – | C[C@@H]1NC(=O)[C@H](CC(N)=O)NC(=O)[C@H](Cc2ccccc2)NC(=O)[C@H](Cc2ccccc2)NC(=O)[C@H](CCCNC(=N)N)NC(=O)[C@@H](NC(=O)[C@@H](N)Cc2ccc(O)cc2)CC(=O)NC[C@@H](C(=O)N[C@@H](Cc2ccc(O)cc2)C(N)=O)NC(=O)[C@H](Cc2ccccc2)NC1=O | 479 |
| – | C[C@@H]1NC(=O)[C@H](CC(N)=O)NC(=O)[C@H](Cc2ccccc2)NC(=O)[C@H](Cc2ccccc2)NC(=O)[C@H](CCCNC(=N)N)NC(=O)[C@@H](NC(=O)[C@@H](N)Cc2ccc(O)cc2)CSSC[C@@H](C(=O)N[C@@H](Cc2ccc(O)cc2)C(N)=O)NC(=O)[C@H](Cc2ccccc2)NC1=O (H-YCRFFNAFCY-NH2; disulfide 2-9) | 155 |
